Data reported in patent publication US20080280862A1, “Methods, compositions, and kits for the treatment of pain” (priority 2007, published 2008).

Assays:
[1] = test system: carrageenan-induced pain model in rats; test: Carrageenan pain model, mechanical allodynia by Von Frey filaments; assay type: in vivo, Sprague-Dawley rats
Procedure: The carrageenan model is a fast, reliable model used to assess the ability of analgesics to block inflammatory pain. The analgesic effects of test article combinations on pain generation are assayed using the carrageenan-induced pain model in rats. Adult male Sprague-Dawley rats are administered study drugs intraperitoneally (vehicle, tricyclic compound (TCA), steroid or TCA/Steroid test article combinations) once daily for 2 days (day −2 and day −1) and 30 minutes prior to the carrageenan injection on day 0 (time=0). For the carrageenan injection, animals are lightly anesthetized and 0.1 ml of 2% carrageenan is injected into the plantar surface of the right hind paw. The positive control diclofenac at a dose of 25 mg/kg is administered intraperitoneally immediately before the carrageenan injection. Paw volumes (right and left) are measured using a plathysmometer before drug administration on day −2 and serve as a baseline measurement. The paw volumes are measured again two hours post carrageenan injection. The degree of mechanical allodynia is measured by a blinded observer using Von Frey filaments applied to the plantar surface of the hind paws in an increasing numerical order. Each filament increases the force applied on the paw. The filaments are applied until animal paw withdrawal is achieved. This procedure is carried out before drug administration (day −2), on day −1 and on day 0 at time=0, 20, 40, 60, 80 and 120 minutes post-carrageenan. The force (expressed in grams) required for paw withdrawal after carrageenan injection is subtracted from the force required for paw withdrawal before carrageenan injection. Results are expressed as mean change from baseline across five timepoints post carrageenan injection in Table 4.
For a synergy calculation, experimental data from the carrageenan study are fitted to a median-effect model and used to calculate the parameters' median-effect dose (Dm), slope (m), correlation coefficient (r), combination index (CI) and dose-reduction index (DRI). In addition, the probability of pain inhibition occurring after single-component (nortriptyline) versus the combination drug treatments are calculated from the negative change from baseline data using a Bayesian sensitivity analysis. The likelihood of pain inhibition is characterized for nortriptyline administered alone (1 mg/kg or 3 mg/kg) versus the fixed-dose combination treatments [prednisolone (0.3 mg/kg):nortriptyline (1 mg/kg) or prednisolone (1 mg/kg):nortriptyline (3 mg/kg)] each evaluated at 60 and 80 minutes for analgesic effect.
In another example, the effects of test article combinations on pain inhibition were assayed using the carrageenan model in rodents. Desipramine was tested alone and in combination at 0.3, 1, and 3 mg/kg and prednisolone was tested similarly at 0.3, 1 and 3 mg/kg IP.

TNFα = TNFα secretion by human white blood cells stimulated with PMA/ionomycin, synergy score; assay type: cell-based; set-up: key: S = Σ Idata(Idata−ILoewe) × ln dilution factors; volume over Loewe additivity; details: PBMC stimulated with PMA/Ionomycin
Procedure: A 100 μl suspension of diluted human white blood cells contained within each well of a polystyrene 384-well plate (NalgeNunc) was stimulated to secrete TNFα by treatment with a final concentration of 10 ng/mL phorbol 12-myristate 13-acetate (Sigma, P-1585) and 750 ng/mL ionomycin (Sigma, I-0634). Various concentrations of each test compound were added at the time of stimulation. After 16-18 hours of incubation at 37° C. in a humidified incubator, the plate was centrifuged and the supernatant transferred to a white opaque polystyrene 384-well plate (NalgeNunc, Maxisorb) coated with an anti-TNFα antibody (PharMingen, #551220). After a two-hour incubation, the plate was washed (Tecan PowerWasher 384) with PBS containing 0.1% Tween 20 and incubated for an additional one hour with another anti-TNFα antibody that was biotin labeled (PharMingen, #554511) and HRP coupled to strepavidin (PharMingen, #13047E). After the plate was washed with 0.1% Tween 20/PBS, an HRP-luminescent substrate was added to each well and light intensity measured using a LJL Analyst plate luminometer.
The synergy scores calculated for the various combinations of compounds set forth in Table 3 was calculated by the formula S=log fX log fYΣIdata(Idata−ILoewe), summed over all non-single-agent concentration pairs, and where log fX,Y are the natural logarithm of the dilution factors used for each single agent. This effectively calculates a volume between the measured and Loewe additive response surfaces, weighted towards high inhibition and corrected for varying dilution factors.

Q: For CN(C)CCC=C1c2ccccc2CCc2ccccc21 [Amitriptyline], which “Mean change from baseline ± SEM” value ([1]; Experiment One, 1 mg/kg, 20 minutes) is on record?
A: Its value is 3.40 ± 3.40 g.

Q: What about the “Mean change from baseline ± SEM” value ([1]; Experiment One, 1 mg/kg, 40 minutes) of the same compound?
A: The value was -49.80 ± 5.19 g.

Q: And the “Mean change from baseline ± SEM” value ([1]; Experiment One, 1 mg/kg, 60 minutes)?
A: Its value is -113.80 ± 7.21 g.

Q: What about the “Mean change from baseline ± SEM” value ([1]; Experiment One, 1 mg/kg, 80 minutes) of the same compound?
A: Its value is -177.80 ± 10.44 g.

Q: And the “Mean change from baseline ± SEM” value ([1]; Experiment One, 1 mg/kg, 120 minutes)?
A: Its value is -231.00 ± 12.33 g.

Q: And the “Mean change from baseline ± SEM” value ([1]; Experiment One, 3 mg/kg, 20 minutes)?
A: Its value is 11.40 ± 5.82 g.

Q: And the “Mean change from baseline ± SEM” value ([1]; Experiment One, 3 mg/kg, 40 minutes)?
A: The value was -56.60 ± 9.09 g.

Q: And the “Mean change from baseline ± SEM” value ([1]; Experiment One, 3 mg/kg, 60 minutes)?
A: The value was -120.60 ± 11.72 g.

Q: And the “Mean change from baseline ± SEM” value ([1]; Experiment One, 3 mg/kg, 80 minutes)?
A: Its value is -173.80 ± 9.90 g.

Q: And the “Mean change from baseline ± SEM” value ([1]; Experiment One, 3 mg/kg, 120 minutes)?
A: Its value is -192.10 ± 10.67 g.

Q: What about the “Mean change from baseline ± SEM” value ([1]; Experiment One, 10 mg/kg, 20 minutes) of the same compound?
A: Its value is 11.30 ± 5.83 g.

Q: What about the “Mean change from baseline ± SEM” value ([1]; Experiment One, 10 mg/kg, 40 minutes) of the same compound?
A: Its value is -41.90 ± 9.86 g.

Q: What about the “Mean change from baseline ± SEM” value ([1]; Experiment One, 10 mg/kg, 60 minutes) of the same compound?
A: The value was -99.10 ± 11.33 g.

Q: And the “Mean change from baseline ± SEM” value ([1]; Experiment One, 10 mg/kg, 80 minutes)?
A: The value was -148.90 ± 12.63 g.

Q: What about the “Mean change from baseline ± SEM” value ([1]; Experiment One, 10 mg/kg, 120 minutes) of the same compound?
A: Its value is -177.70 ± 16.01 g.

Q: And the “Mean change from baseline ± SEM” value ([1]; Experiment One, 20 mg/kg, 20 minutes)?
A: The value was 19.90 ± 6.68 g.

Q: What about the “Mean change from baseline ± SEM” value ([1]; Experiment One, 20 mg/kg, 40 minutes) of the same compound?
A: Its value is -33.30 ± 7.80 g.

Q: And the “Mean change from baseline ± SEM” value ([1]; Experiment One, 20 mg/kg, 60 minutes)?
A: Its value is -93.30 ± 7.80 g.

Q: What about the “Mean change from baseline ± SEM” value ([1]; Experiment One, 20 mg/kg, 80 minutes) of the same compound?
A: Its value is -138.60 ± 6.03 g.

Q: What about the “Mean change from baseline ± SEM” value ([1]; Experiment Two, first set of rows, 3 mg/kg, 20 minutes) of the same compound?
A: The value was -2.20 ± 3.62 g.

Q: And the “Mean change from baseline ± SEM” value ([1]; Experiment Two, first set of rows, 3 mg/kg, 40 minutes)?
A: The value was -6.19 ± 5.21 g.

Q: What about the “Mean change from baseline ± SEM” value ([1]; Experiment Two, first set of rows, 3 mg/kg, 60 minutes) of the same compound?
A: The value was -1.60 ± 3.83 g.

Q: What about the “Mean change from baseline ± SEM” value ([1]; Experiment Two, first set of rows, 3 mg/kg, 80 minutes) of the same compound?
A: The value was 15.70 ± 5.20 g.

Q: What about the “Mean change from baseline ± SEM” value ([1]; Experiment Two, first set of rows, 3 mg/kg, 120 minutes) of the same compound?
A: Its value is 26.61 ± 4.90 g.

Q: What about the “Synergy Score based on TNF-α inhibition” value (TNFα; combination with Betamethasone) of the same compound?
A: Its value is 0.7.

Q: And the “Synergy Score based on TNF-α inhibition” value (TNFα; combination with Budesonide)?
A: The value was 0.78.

Q: What about the “Synergy Score based on TNF-α inhibition” value (TNFα; combination with Clobetasol) of the same compound?
A: The value was 0.75.

Q: And the “Synergy Score based on TNF-α inhibition” value (TNFα; combination with Dexamethasone)?
A: Its value is 1.2.

Q: And the “Synergy Score based on TNF-α inhibition” value (TNFα; combination with Diflorasone)?
A: The value was 0.59.

Q: And the “Synergy Score based on TNF-α inhibition” value (TNFα; combination with Hydrocortisone)?
A: The value was 0.78.

Q: And the “Synergy Score based on TNF-α inhibition” value (TNFα; combination with Prednisolone)?
A: Its value is 0.68.

Q: What about the “Synergy Score based on TNF-α inhibition” value (TNFα; combination with Triamcinolone) of the same compound?
A: The value was 0.34.
